# Target: full-length human PIKFYVE (N-terminal GST-fusion) (Homo sapiens (Human), UniProt Q9Y2I7, L932S/Q1183K/Q995L/S1033A/S696N/T998S)
# Experiment: PIKfyve biochemical assay (ADP-Glo Kinase assay, Carna Biosciences)
# Settings: ADP-Glo, full-length human GST-PIKFYVE, 10 μM to 3 nM; read-out: hPIKfyve IC50
# Source text: (§1) PIKfyve Biochemical Assay. The biochemical PIKfyve inhibition assays were run by Carna Biosciences according to proprietary methodology based on the Promega ADP-Glo™ Kinase assay. A full-length human PIKFYVE [1-2098(end) amino acids and S696N, L932S, Q995L, T998S, S1033A and Q1183K of the protein having the sequence set forth in NCBI Reference Sequence No. NP_055855.2] was expressed as N-terminal GST-fusion protein (265 kDa) using baculovirus expression system. GST-PIKFYVE was purified by using glutathione sepharose chromatography and used in an ADP-Glo™ Kinase assay (Promega). Reactions were set up by adding the test compound solution, substrate solution, ATP solution and kinase solution, each at 4× final concentrations. Reactions were prepared with assay buffer (50 mM MOPS, 1 mM DTT, pH7.2), mixed, and incubated in black 384 well polystyrene plates for 1 hour at room temperature. ADP-Glo™ reagent was then added for 40 minutes, followed by kinase detection reagent for an additional 40 minutes. The kinase activity was evaluated by detecting relative light units on a luminescence plate reader. Samples were run in duplicate from 10 μM to 3 nM. […] IC50 values were calculated from concentration vs % inhibition curves by fitting to a four-parameter logistic curve.
# as §1, with “The” for “PIKfyve Biochemical Assay. The”, “accession number” for “the protein having the sequence set forth in NCBI Reference Sequence No.”, “curve. […]” for “curve.”
# Chain of full-length human PIKFYVE (N-terminal GST-fusion) (Q9Y2I7 whole entry S696N/L932S/Q995L/T998S/S1033A/Q1183K, the tested form may be a part): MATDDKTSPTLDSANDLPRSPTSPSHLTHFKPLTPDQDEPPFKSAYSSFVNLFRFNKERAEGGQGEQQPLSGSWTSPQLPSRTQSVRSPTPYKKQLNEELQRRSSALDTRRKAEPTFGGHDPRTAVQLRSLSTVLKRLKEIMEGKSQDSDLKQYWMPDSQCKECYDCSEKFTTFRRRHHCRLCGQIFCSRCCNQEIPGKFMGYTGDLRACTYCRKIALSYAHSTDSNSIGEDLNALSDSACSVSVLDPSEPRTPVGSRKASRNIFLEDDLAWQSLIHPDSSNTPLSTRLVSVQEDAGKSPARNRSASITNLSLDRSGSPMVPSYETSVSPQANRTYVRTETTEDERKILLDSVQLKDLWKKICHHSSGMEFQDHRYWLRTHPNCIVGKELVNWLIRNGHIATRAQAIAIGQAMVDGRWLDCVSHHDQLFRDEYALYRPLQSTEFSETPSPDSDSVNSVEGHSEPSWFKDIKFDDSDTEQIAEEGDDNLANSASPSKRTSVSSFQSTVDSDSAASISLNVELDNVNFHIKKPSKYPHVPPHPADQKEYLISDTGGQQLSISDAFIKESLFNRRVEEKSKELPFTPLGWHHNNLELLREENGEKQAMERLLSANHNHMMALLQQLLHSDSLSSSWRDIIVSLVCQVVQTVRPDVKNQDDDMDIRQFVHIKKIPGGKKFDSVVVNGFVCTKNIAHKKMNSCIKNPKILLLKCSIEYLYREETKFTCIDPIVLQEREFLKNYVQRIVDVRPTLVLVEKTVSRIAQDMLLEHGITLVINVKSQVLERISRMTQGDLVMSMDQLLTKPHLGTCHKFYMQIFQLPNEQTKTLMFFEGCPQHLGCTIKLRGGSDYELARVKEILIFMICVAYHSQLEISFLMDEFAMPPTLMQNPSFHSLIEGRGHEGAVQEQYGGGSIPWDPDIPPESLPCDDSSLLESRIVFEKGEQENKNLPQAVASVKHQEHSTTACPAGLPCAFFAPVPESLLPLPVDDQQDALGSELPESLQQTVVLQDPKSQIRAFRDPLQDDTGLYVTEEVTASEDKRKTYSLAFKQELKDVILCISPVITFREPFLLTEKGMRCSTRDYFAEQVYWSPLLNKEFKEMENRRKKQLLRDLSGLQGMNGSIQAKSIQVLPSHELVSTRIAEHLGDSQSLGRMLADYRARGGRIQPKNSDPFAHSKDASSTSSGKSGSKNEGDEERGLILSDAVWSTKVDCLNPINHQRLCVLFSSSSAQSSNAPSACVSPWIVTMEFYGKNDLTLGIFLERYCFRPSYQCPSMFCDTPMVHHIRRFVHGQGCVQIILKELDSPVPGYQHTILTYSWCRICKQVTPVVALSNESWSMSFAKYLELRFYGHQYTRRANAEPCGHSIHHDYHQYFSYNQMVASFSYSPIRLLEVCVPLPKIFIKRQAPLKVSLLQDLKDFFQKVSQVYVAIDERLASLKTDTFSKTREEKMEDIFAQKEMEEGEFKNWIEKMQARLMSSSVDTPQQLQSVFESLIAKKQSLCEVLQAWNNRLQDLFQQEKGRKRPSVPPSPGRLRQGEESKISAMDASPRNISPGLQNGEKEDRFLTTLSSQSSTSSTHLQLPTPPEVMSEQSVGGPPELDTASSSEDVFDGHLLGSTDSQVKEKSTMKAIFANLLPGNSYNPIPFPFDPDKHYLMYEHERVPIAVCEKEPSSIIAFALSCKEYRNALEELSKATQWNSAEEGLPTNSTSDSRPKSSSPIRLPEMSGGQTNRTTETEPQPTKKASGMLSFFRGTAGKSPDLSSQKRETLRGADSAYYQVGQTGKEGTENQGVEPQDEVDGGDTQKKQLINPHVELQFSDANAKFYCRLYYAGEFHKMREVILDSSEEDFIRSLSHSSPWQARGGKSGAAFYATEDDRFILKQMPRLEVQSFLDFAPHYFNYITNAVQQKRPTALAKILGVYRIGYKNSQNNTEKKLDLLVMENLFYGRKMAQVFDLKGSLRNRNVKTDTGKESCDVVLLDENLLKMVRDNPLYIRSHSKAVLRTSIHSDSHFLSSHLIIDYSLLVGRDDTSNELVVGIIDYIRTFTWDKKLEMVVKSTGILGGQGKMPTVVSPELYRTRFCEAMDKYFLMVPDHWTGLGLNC
row,Compound,IC50
1,"CN1CCC(c2nc(N3CCOCC3)nc3c2CCN3c2ccccc2)C1 (stereo not shown) [Compound 121, 4-(4-(1-methylpyrrolidin-3-yl)-7-phenyl-6,7-dihydro-H-pyrrolo[2,3-d]pyrimidin-2-yl)morpholine]",100 to 1000 nM
2,"CN1CCC(c2nc(N3CCOCC3)nc3c2ncn3-c2ccccc2)C1 (stereo not shown) [Compound 126, 4-(6-(1-methylpyrrolidin-3-yl)-9-phenyl-9H-purin-2-yl)morpholine]",1000 to 10000 nM
3,"COc1cccc(N2CCc3c(OCC4CCCN(C)C4)nc(N4CCOCC4)nc32)c1 (stereo not shown) [Compound 13, 4-(7-(3-methoxyphenyl)-4-((1-methylpiperidin-3-yl)methoxy)-6,7-dihydro-5H-pyrrolo[2,3-d]pyrimidin-2-yl)morpholine]",10 to 100 nM
4,"c1cncc(N2CCc3c(OCC4CCOCC4)nc(N4CCOCC4)nc32)c1 [Compound 151, 4-{4-[(oxan-4-yl)methoxy]-7-(pyridin-3-yl)-5H,6H,7H-pyrrolo[2,3-d]pyrimidin-2-yl}morpholine]",100 to 1000 nM
5,"O=C(C1CC1)N1CCC(c2nc(N3CCOCC3)nc3c2CCN3c2ccccc2)C1 (stereo not shown) [Compound 118, cyclopropyl(3-(2-morpholino-7-phenyl-6,7-dihydro-5H-pyrrolo[2,3-d]pyrimidin-4-yl)pyrrolidin-1-yl)methanone]",< 10 nM
6,"CN1CCOC(COc2nc(N3CCOCC3)nc3c2CCN3c2cccnc2)C1 (stereo not shown) [Compound 12, 4-methyl-2-((2-morpholino-7-(pyridin-3-yl)-6,7-dihydro-5H-pyrrolo[2,3-d]pyrimidin-4-yloxy)methyl)morpholine]",100 to 1000 nM
7,"c1ncc(N2CCc3c(OCC4CCOCC4)nc(N4CCOCC4)nc32)cn1 [Compound 9, 4-(7-(pyrimidin-5-yl)-4-((tetrahydro-2H-pyran-4-yl)methoxy)-6,7-dihydro-5H-pyrrolo[2,3-d]pyrimidin-2-yl)morpholine]",100 to 1000 nM
8,"c1ccc(N2CCc3c(C4CCNCC4)nc(N4CCOCC4)nc32)cc1 [Compound 111, 4-(7-phenyl-4-(piperidin-4-yl)-6,7-dihydro-5H-pyrrolo[2,3-d]pyrimidin-2-yl)morpholine]",100 to 1000 nM
9,"CN1CCC(c2nc(N3CCOCC3)nc3c2CCN3c2ccccc2)CC1 [Compound 112, 4-(4-(1-methylpiperidin-4-yl)-7-phenyl-6,7-dihydro-5H-pyrrolo[2,3-d]pyrimidin-2-yl)morpholine]",10 to 100 nM
10,"c1ccc(N2CCc3c(OCc4cncnc4)nc(N4CCOCC4)nc32)cc1 [Compound 14, 4-(7-phenyl-4-(pyrimidin-5-ylmethoxy)-6,7-dihydro-5H-pyrrolo[2,3-d]pyrimidin-2-yl)morpholine]",10 to 100 nM
11,"4-(4-((oxetan-3-yloxy)methyl)-7-(pyridin-3-yl)-6,7-dihydro-5H-pyrrolo[2,3-d]pyrimidin-2-yl)morpholine [Compound 65]",1000 to 10000 nM
12,"c1ccc(N2CCc3c(OCc4cnccn4)nc(N4CCOCC4)nc32)cc1 [Compound 15, 4-(7-phenyl-4-(pyrazin-2-ylmethoxy)-6,7-dihydro-5H-pyrrolo[2,3-d]pyrimidin-2-yl)morpholine]",10 to 100 nM
13,"c1cncc(N2CCc3c(C4CCCNC4)nc(N4CCOCC4)nc32)c1 (stereo not shown) [Compound 114, 4-(4-(piperidin-3-yl)-7-(pyridin-3-yl)-6,7-dihydro-5H-pyrrolo[2,3-d]pyrimidin-2-yl)morpholine]",1000 to 10000 nM
14,"c1cc(-c2nc(N3CCOCC3)nc3c(-c4cnn(C5CC5)c4)c[nH]c23)ccn1 [Compound 140, 4-(7-(1-cyclopropyl-1H-pyrazol-4-yl)-4-(pyridin-4-yl)-5H-pyrrolo[3,2-d]pyrimidin-2-yl)morpholine]",10 to 100 nM
15,"O=C(Cc1ccccc1)N1CCc2c(-c3ccncc3)nc(N3CCOCC3)nc21 [Compound 73, 1-(2-morpholino-4-(pyridin-4-yl)-5,6-dihydro-7H-pyrrolo[2,3-d]pyrimidin-7-yl)-2-phenylethan-1-one]",10 to 100 nM
16,"CC(C)(O)Cc1nc(N2CCOCC2)nc2c1CCN2c1ccccc1 [Compound 46, 2-methyl-1-(2-morpholino-7-phenyl-6,7-dihydro-5H-pyrrolo[2,3-d]pyrimidin-4-yl)propan-2-ol]",10 to 100 nM

# From patent US20250145642A1, “BICYCLIC HETEROARENES AND METHODS OF THEIR USE” (Kineta, Inc., priority 2021, published 2025)
